Columns and labels:
[1] = system: Phytophthora infestans; assay type: in vivo; conditions: 125 ppm, 200 L/10 a spray on tomato (5 leaf stage), inoculated next day; diseased area rates of third to fifth true leaves after 3 days in green house, graded by Table 5
[2] = system: Pseudoperonospora cubensis; assay: Effect test for cucumber downy mildew (Evaluation Example 4); assay type: in vivo; conditions: 125 ppm, 200 L/10 a spray on cucumber (3 leaf stage), inoculated next day; diseased area rates of first and second true leaves after 3 days in green house, graded by Table 5
Method: The active ingredient compound was diluted with water containing 0.01% Tween 20 to have a concentration of 125 ppm. […] Next day, a zoosporangium suspension of Pseudoperonospora cubensis which was the causative fungus of cucumber downy mildew was sprayed to inoculate.

[3] = system: Pyricularia oryzae; assay type: in vivo; conditions: 200 ppm spray on rice (Koshihikari, 3 leaf stage), inoculated next day; lesion numbers on third leaves after 7 days in green house, graded by Table 5
[4] = system: Colletotrichum lagenarium; conditions: 200 ppm spray on cucumber (3 leaf stage), inoculated next day; lesion numbers on first and second leaves after 7 days in green house, graded by Table 5

O=C(NCc1cc(CCl)no1)c1ccc(Cl)cc1 [III-254, N-[(3-chloromethyl-5-isoxazolyl)methyl]-4-chlorobenzamide]
Evaluation (effect for tomato late blight) [1]: 5 (0)
Evaluation (effect for cucumber downy mildew) [2]: 3 (6˜10)

O=C(NCc1cc(CBr)no1)NC1CCCCC1 [II-111, 3-(3-bromomethyl-5-isoxazolyl)methyl-1-cyclohexylurea]
Evaluation (effect for tomato late blight) [1]: 5 (0)
Evaluation (effect for cucumber downy mildew) [2]: 3 (6˜10)

CCc1ccc(C(=O)NCc2cc(CCl)no2)cc1 [III-269, N-[(3-chloromethyl-5-isoxazolyl)methyl]-4-ethylbenzamide]
Evaluation (effect for tomato late blight) [1]: 5 (0)
Evaluation (effect for cucumber downy mildew) [2]: 5 (0)

O=C(NCc1cc(CCl)no1)c1cccc(Cl)c1 [III-277, N-[(3-chloromethyl-5-isoxazolyl)methyl]-3-chlorobenzamide]
Evaluation (effect for tomato late blight) [1]: 4 (1˜5)
Evaluation (effect for cucumber downy mildew) [2]: 2 (11˜20)

O=C(NCc1cc(CCl)no1)NC1CCCC1 [II-107, 3-(3-chloromethyl-5-isoxazolyl)methyl-1-cyclopentylurea]
Evaluation (effect for tomato late blight) [1]: 4 (1˜5)
Evaluation (effect for cucumber downy mildew) [2]: 2 (11˜20)

O=C(NCc1cc(CCl)no1)c1ccc(Cl)c(Cl)c1 [III-272, N-[(3-chloromethyl-5-isoxazolyl)methyl]-3,4-dichlorobenzamide]
Evaluation (effect for tomato late blight) [1]: 5 (0)
Evaluation (effect for cucumber downy mildew) [2]: 3 (6˜10)

O=C(COc1ccccc1)NCc1cc(CCl)no1 [I-65, N-[(3-chloromethyl-5-isoxazolyl)methyl]phenoxyacetamide]
Evaluation (effect for tomato late blight) [1]: 4 (1˜5)
Evaluation (effect for cucumber downy mildew) [2]: 2 (11˜20)

O=C(NCc1cc(CCl)no1)c1ccc2ccccc2c1 [III-267, N-[(3-chloromethyl-5-isoxazolyl)methyl]-2-naphthalenecarboxamide]
Evaluation (effect for tomato late blight) [1]: 5 (0)
Evaluation (effect for cucumber downy mildew) [2]: 5 (0)

Cc1ccc(C(=O)NCc2cc(CCl)no2)cc1 [III-2, N-[(3-chloromethyl-5-isoxazolyl)methyl]-4-methylbenzamide]
Evaluation (effect for rice blast) [3]: 4 (1˜5)
Evaluation (effect for tomato late blight) [1]: 5 (0)
Evaluation (effect for cucumber downy mildew) [2]: 5 (0)
Evaluation (effect for cucumber anthracnose) [4]: 4 (1˜5)

COc1ccc(C(=O)NCc2cc(CCl)no2)cc1 [III-3, N-[(3-chloromethyl-5-isoxazolyl)methyl]-4-methoxy benzamide]
Evaluation (effect for tomato late blight) [1]: 2 (11˜20)
Evaluation (effect for cucumber downy mildew) [2]: 4 (1˜5)

O=C(NCc1cc(CCl)no1)c1ccccc1 [III-226, N-[(3-chloromethyl-5-isoxazolyl)methyl]benzamide]
Evaluation (effect for tomato late blight) [1]: 3 (6˜10)
Evaluation (effect for cucumber downy mildew) [2]: 4 (1˜5)

O=C(NCc1cc(CI)no1)NC1CCCCC1 [II-115, 3-(3-iodomethyl-5-isoxazolyl)methyl-1-cyclohexylurea]
Evaluation (effect for rice blast) [3]: 3 (6˜10)
Evaluation (effect for tomato late blight) [1]: 3 (6˜10)
Evaluation (effect for cucumber downy mildew) [2]: 1 (21˜41)
Evaluation (effect for cucumber anthracnose) [4]: 2 (11˜20)

CS(=O)(=O)c1ccc(C(=O)NCc2cc(CCl)no2)c(Cl)c1 [III-279, N-[(3-chloromethyl-5-isoxazolyl)methyl]-2-chloro-4-methanesulfonylbenzamide]
Evaluation (effect for tomato late blight) [1]: 5 (0)
Evaluation (effect for cucumber downy mildew) [2]: 3 (6˜10)

Cc1cccc(C(=O)NCc2cc(CCl)no2)c1 [III-274, N-[(3-chloromethyl-5-isoxazolyl)methyl]-3-methylbenzamide]
Evaluation (effect for tomato late blight) [1]: 4 (1˜5)
Evaluation (effect for cucumber downy mildew) [2]: 2 (11˜20)

O=C(NCc1cc(CCl)no1)c1ccc([N+](=O)[O-])cc1 [III-278, N-[(3-chloromethyl-5-isoxazolyl)methyl]-4-nitrobenzamide]
Evaluation (effect for tomato late blight) [1]: 4 (1˜5)
Evaluation (effect for cucumber downy mildew) [2]: 2 (11˜20)

O=C(NCc1cc(CCl)no1)NC1CCCCC1 [II-105, 3-(3-chloromethyl-5-isoxazolyl)methyl-1-cyclohexylurea]
Evaluation (effect for rice blast) [3]: 2 (11˜20)
Evaluation (effect for tomato late blight) [1]: 5 (0)
Evaluation (effect for cucumber downy mildew) [2]: 4 (1˜5)
